From ChEMBL document CHEMBL5505953, “Facilitating the development of molecular glues: Opportunities from serendipity and rational design” (Eur J Med Chem, 2024)

Tests used:
LN-229 = assay: cells; conditions: Homo sapiens, LN-229, 144 h
HeLa = assay: cells; conditions: Homo sapiens, 48 h
A549 [1] = assay: cells; conditions: Homo sapiens, A549, 48 h
MCF7 = assay: cells; conditions: Homo sapiens, MCF7, 48 h
PC-3 = assay: cells; conditions: Homo sapiens, PC-3, 48 h
NCI-H2122 = assay: cells; conditions: Homo sapiens, NCI-H2122, 48 h
NCI-H1563 = assay: cells; conditions: Homo sapiens, NCI-H1563, 48 h
RNA-binding protein 39 = RNA-binding protein 39 (Homo sapiens, UniProt Q14498)
[2] = biological target: B-cell lymphoma 6 protein (Homo sapiens, UniProt P41182)
[3] = biological target: Protein cereblon/Zinc finger protein Helios (Homo sapiens, UniProt Q96SW2+Q9UKS7); conditions: hek293t
Cyclin-K = Cyclin-K (Homo sapiens, UniProt O75909); conditions: hct-116
A549 [4] = assay: cells; conditions: Homo sapiens, A549, 72 h
HCT-116 = assay: cells; conditions: Homo sapiens, HCT-116, 72 h
Estrogen receptor = Estrogen receptor (Homo sapiens, UniProt P03372)
[5] = biological target: Protein cereblon/Tyrosine-protein kinase BTK (Homo sapiens, UniProt Q06187+Q96SW2); conditions: ramos
[6] = biological target: Cereblon/Casein kinase I alpha (Homo sapiens, UniProt P48729+Q96SW2); conditions: molm-13
[7] = biological target: Cystic fibrosis transmembrane conductance regulator (Homo sapiens, UniProt P13569)
MDA-MB-231 = assay: cells; conditions: Homo sapiens, MDA-MB-231, 48 h
HCC38 = assay: cells; conditions: Homo sapiens, HCC38, 48 h
CDK12/Cyclin K = CDK12/Cyclin K (Homo sapiens, UniProt Q9NYV4)
[8] = biological target: 14-3-3 protein beta/alpha (Homo sapiens, UniProt P31946)
Protein cereblon = Protein cereblon (Homo sapiens, UniProt Q96SW2)
Sequence of Protein cereblon (Q96SW2 whole entry): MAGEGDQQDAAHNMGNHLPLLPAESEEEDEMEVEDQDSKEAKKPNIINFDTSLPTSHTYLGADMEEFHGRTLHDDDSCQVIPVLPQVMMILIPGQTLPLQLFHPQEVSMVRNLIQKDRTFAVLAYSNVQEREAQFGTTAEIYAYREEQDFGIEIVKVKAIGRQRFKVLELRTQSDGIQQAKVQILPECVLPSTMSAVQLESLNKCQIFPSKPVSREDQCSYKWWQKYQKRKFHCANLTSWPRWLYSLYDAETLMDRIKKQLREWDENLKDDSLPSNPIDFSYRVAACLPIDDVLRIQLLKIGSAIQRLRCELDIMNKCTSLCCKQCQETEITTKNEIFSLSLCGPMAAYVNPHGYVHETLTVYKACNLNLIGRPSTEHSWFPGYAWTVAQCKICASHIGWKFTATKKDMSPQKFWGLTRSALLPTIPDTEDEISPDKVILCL

Sequence of CDK12/Cyclin K (O75909 whole entry): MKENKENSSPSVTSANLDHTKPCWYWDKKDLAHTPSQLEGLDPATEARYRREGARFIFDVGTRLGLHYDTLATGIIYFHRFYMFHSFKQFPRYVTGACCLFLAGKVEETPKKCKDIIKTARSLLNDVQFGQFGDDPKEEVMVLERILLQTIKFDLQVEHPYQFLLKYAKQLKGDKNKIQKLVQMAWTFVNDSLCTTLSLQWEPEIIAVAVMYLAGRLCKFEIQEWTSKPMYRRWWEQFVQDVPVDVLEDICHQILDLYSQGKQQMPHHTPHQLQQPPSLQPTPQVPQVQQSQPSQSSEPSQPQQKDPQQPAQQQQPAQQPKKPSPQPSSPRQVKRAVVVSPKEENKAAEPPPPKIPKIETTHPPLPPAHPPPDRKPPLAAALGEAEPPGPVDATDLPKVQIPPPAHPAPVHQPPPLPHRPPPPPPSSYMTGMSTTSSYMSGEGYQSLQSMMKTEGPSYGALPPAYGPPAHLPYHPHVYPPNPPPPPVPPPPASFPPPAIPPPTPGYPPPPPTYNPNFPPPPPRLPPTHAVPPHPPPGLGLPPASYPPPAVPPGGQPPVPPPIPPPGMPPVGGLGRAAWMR
Sequence of CDK12/Cyclin K (Q9NYV4 whole entry): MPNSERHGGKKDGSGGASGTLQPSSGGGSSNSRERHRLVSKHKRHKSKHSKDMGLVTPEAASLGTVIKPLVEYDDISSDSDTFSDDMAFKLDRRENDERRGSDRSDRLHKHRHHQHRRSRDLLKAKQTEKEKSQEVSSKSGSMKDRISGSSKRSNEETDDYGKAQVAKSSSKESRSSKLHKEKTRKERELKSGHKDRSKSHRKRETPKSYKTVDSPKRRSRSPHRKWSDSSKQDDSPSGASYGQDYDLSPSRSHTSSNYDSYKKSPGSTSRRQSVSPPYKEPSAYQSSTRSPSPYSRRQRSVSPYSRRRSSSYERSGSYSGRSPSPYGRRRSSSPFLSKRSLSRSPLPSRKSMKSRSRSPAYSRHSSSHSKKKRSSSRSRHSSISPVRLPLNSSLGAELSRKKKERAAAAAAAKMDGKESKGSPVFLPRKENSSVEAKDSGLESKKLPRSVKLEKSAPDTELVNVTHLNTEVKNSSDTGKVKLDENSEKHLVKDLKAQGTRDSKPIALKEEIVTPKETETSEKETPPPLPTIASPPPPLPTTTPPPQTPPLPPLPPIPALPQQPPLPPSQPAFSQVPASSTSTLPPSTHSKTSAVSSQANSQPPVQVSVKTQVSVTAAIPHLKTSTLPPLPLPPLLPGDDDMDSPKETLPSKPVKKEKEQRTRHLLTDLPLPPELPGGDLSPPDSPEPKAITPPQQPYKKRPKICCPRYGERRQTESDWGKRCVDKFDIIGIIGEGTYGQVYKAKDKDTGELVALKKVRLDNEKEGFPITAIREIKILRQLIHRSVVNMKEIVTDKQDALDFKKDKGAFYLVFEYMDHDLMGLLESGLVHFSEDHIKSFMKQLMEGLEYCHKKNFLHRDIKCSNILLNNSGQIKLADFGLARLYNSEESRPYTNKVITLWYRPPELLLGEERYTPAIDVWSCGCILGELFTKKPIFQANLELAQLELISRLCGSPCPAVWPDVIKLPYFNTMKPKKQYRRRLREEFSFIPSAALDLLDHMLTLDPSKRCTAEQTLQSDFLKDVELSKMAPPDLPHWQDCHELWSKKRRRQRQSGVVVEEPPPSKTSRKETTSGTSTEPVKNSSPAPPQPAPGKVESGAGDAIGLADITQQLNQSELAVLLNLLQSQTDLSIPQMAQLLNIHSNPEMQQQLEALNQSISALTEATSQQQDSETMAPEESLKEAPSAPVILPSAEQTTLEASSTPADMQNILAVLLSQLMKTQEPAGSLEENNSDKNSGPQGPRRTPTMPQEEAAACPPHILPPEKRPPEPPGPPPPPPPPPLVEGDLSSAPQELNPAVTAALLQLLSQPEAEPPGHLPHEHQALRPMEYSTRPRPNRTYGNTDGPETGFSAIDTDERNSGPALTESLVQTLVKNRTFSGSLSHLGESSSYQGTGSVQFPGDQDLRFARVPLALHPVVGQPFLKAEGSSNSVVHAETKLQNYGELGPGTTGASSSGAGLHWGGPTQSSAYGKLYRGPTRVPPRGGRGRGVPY
Sequence of Protein cereblon/Zinc finger protein Helios (Q96SW2 whole entry): as the sequence (Q96SW2 whole entry) above
Sequence of Protein cereblon/Zinc finger protein Helios (Q9UKS7 whole entry): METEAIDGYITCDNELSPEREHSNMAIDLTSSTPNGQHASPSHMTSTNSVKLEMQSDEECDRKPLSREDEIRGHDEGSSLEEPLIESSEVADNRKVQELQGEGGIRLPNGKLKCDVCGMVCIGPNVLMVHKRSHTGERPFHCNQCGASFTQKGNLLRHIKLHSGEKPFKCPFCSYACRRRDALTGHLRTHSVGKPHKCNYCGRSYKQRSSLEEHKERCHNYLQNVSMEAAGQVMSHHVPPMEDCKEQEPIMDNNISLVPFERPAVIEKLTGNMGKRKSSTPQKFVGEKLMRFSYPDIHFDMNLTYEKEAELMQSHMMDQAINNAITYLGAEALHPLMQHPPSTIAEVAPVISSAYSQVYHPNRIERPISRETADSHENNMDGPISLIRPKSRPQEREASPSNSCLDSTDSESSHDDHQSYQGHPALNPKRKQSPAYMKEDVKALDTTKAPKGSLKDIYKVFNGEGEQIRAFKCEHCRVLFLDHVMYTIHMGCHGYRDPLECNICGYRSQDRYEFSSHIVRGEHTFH
Sequence of 14-3-3 protein beta/alpha (P31946 whole entry): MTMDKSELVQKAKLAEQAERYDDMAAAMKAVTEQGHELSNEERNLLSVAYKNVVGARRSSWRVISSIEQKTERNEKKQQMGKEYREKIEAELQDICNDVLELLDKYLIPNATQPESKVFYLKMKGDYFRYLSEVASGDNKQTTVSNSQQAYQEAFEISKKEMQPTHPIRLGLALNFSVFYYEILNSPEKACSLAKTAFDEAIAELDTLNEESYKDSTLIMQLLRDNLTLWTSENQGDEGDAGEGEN
Sequence of RNA-binding protein 39 (Q14498 whole entry): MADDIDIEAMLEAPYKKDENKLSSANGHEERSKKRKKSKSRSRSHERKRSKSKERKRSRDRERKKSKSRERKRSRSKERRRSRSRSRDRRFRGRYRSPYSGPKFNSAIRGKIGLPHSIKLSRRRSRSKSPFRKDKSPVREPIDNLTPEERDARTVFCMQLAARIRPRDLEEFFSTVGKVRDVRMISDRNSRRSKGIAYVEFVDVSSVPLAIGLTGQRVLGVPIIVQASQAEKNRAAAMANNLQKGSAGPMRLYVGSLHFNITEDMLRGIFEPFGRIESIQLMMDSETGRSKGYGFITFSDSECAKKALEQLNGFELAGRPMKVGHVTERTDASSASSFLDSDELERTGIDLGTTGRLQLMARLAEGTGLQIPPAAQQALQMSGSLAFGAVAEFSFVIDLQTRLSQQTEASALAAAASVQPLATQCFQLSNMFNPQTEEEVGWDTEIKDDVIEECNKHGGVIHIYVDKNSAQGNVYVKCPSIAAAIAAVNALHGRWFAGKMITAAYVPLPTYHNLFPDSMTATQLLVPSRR
Sequence of Cyclin-K (O75909 whole entry): as the sequence (O75909 whole entry) above
Sequence of Cereblon/Casein kinase I alpha (P48729 whole entry): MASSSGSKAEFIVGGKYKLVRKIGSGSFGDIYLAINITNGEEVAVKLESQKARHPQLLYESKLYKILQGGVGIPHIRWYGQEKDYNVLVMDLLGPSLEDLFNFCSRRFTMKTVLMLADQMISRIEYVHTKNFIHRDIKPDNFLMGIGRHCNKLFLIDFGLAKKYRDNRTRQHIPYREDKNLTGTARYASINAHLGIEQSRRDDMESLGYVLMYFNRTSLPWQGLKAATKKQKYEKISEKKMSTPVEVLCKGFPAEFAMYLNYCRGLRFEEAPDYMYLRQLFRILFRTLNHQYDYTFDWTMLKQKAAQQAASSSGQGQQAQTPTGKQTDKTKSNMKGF
Sequence of Cereblon/Casein kinase I alpha (Q96SW2 whole entry): as the sequence (Q96SW2 whole entry) above
Sequence of Protein cereblon/Tyrosine-protein kinase BTK (Q06187 whole entry): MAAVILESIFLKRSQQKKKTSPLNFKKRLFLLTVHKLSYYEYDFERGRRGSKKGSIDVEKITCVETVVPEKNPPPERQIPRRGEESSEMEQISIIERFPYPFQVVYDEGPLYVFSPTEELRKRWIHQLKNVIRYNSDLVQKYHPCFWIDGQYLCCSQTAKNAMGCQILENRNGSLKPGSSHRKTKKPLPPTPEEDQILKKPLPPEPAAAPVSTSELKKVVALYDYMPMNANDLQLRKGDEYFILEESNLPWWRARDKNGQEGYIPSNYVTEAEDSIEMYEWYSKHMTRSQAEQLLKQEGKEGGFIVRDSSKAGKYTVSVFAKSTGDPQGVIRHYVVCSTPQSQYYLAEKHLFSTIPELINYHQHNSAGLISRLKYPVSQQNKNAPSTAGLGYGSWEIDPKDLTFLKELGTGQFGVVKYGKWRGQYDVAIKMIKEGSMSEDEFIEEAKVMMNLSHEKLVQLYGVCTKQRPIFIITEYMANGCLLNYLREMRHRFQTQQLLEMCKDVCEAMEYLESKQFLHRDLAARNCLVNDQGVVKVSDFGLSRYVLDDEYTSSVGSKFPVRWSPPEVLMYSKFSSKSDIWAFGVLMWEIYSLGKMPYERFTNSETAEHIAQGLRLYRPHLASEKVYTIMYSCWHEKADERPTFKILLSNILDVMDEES
Sequence of Protein cereblon/Tyrosine-protein kinase BTK (Q96SW2 whole entry): as the sequence (Q96SW2 whole entry) above

Question: Which IC50 (LN-229) does the source give for `O=C(Nc1ccc(Cl)c([N+](=O)[O-])c1)Nc1nc2ccccc2s1` here?
Answer: 2.3 µM

Question: What does the source list for `CCN(CC)c1ccc(C2=NNC(=O)CC2C)cc1[N+](=O)[O-]` (stereo unspecified)?
Answer: EC50 (HeLa): 0.01 µM; EC50 (A549 [1]): 0.01 µM; EC50 (MCF7): 0.01 µM; EC50 (PC-3): 0.01 µM; EC50 (NCI-H2122): 0.01 µM; EC50 (NCI-H1563): 0.01 µM

Question: Which IC50 (RNA-binding protein 39) does the source give for `Cc1ccc(S(=O)(=O)N/N=C/c2cc(Br)ccc2O)cc1` here?
Answer: 0.4 µM

Question: With `CNC(=O)COc1cc2cc(Nc3nc(N4C[C@H](C)C[C@H](C)C4)ncc3Cl)ccc2n(C)c1=O` as the compound, how does the IC50 [2] read?
Answer: < 0.003 µM

Question: With `O=C1CCC(N2Cc3cc(C4CCN(Cc5ccccc5)CC4)ccc3C2=O)C(=O)N1` (stereo unspecified) as the compound, how does the DC50 [3] read?
Answer: 4 µM

Question: `O=C1CCC(N2Cc3cc(C4CCNCC4)ccc3C2=O)C(=O)N1` (stereo unspecified) was tested. Which DC50 [3] did it give?
Answer: > 50 µM

Question: For `Cc1cccc(Nc2nc(CC(=O)Nc3ncc(C)s3)cs2)n1`, which DC50 (Cyclin-K) is on record?
Answer: 0.132 µM

Question: And the IC50 (A549 [4])?
Answer: 1.3 µM

Question: What about the IC50 (HCT-116) of the same compound?
Answer: 1.3 µM

Question: With `O=C(C1=C(O)C(=O)N(c2ccccc2O)C1c1ccc([N+](=O)[O-])cc1)c1ccccc1` (stereo unspecified) as the compound, how does the IC50 (Estrogen receptor) read?
Answer: 75 µM

Question: How did the DC50 [5] turn out when `Nc1ncnc2c1c(-c1ccc(Oc3ccccc3)cc1)nn2[C@H]1CCCN(C(=O)CCCCCCCCNc2ccc3c(c2)C(=O)N(C2CCC(=O)NC2=O)C3=O)C1` (stereo partly specified) was run?
Answer: 0.05 µM

Question: `O=C1CCC(N2Cc3c(CNC(=O)c4ccc(F)cc4)cccc3C2=O)C(=O)N1` (stereo unspecified) was tested. Which DC50 [6] did it give?
Answer: 0.011 µM

Question: For `N=C(N)NCCC[C@@H]1NCc2ccccc2Sc2ccccc2CNC(=O)[C@H](Cc2ccc(O)cc2)NC(=O)[C@H](CCCN)NC1=O`, which IC50 [7] is on record?
Answer: 36.1 µM

Question: With `O=C(/C=C/C=C/C=C/C1CCCCC1)NC1=C[C@@](O)(/C=C/C=C/C=C/C(=O)NC2=C(O)CCC2=O)[C@@H]2O[C@@H]2C1=O` as the compound, how does the EC50 (MDA-MB-231) read?
Answer: 13.8 µM

Question: And the EC50 (HCC38)?
Answer: 4.5 µM

Question: `N#Cc1ccc2nc(NC(=O)Nc3cccc(Cl)c3)sc2c1` was tested. Which IC50 (LN-229) did it give?
Answer: 0.85 µM

Question: With `O=C(CSc1nnc2c(n1)[nH]c1ccccc12)Nc1ccc(Cl)cn1` as the compound, how does the IC50 (CDK12/Cyclin K) read?
Answer: 0.4 µM

Question: With `O=C(CSc1nc2ccccc2[nH]1)Nc1ccc(Cl)cn1` as the compound, how does the IC50 (CDK12/Cyclin K) read?
Answer: 0.4 µM

Question: How did the IC50 [8] turn out when `O=C(COc1ccccc1P(=O)(O)O)NCCc1ccccc1` was run?
Answer: 5.2 µM

Question: For `Cc1ccc(C(=O)N2CSCC2C(=O)/N=c2/[nH]cc(C)s2)o1` (stereo unspecified), which IC50 (CDK12/Cyclin K) is on record?
Answer: 0.4 µM

Question: For `NS(=O)(=O)c1ccc(S(=O)(=O)Nc2cccc3c(Cl)c[nH]c23)cc1`, which IC50 (Protein cereblon) is on record?
Answer: 0.36 µM
